Measurements from paper PMC10324562, “Inhibitory NKG2A^+ and absent activating NKG2C^+ NK cell responses are associated with the development of EBV^+ lymphomas” (Frontiers in Immunology, 2023).
Ends that are not written are not given here.

B1: Monalizumab: α-NKG2A blocking monoclonal antibody (Innate Pharma) (antibody, chains of the INN, looked up, V domains shown)
VH: QVQLVQSGAEVKKPGASVKVSCKASGYTFTSYWMNWVRQAPGQGLEWMGRIDPYDSETHYAQKLQGRVTMTTDTSTSTAYMELRSLRSDDTAVYYCARGGYDFDVGTLYWFFDVWGQGTTVTVSS
VL: DIQMTQSPSSLSASVGDRVTITCRASENIYSYLAWYQQKPGKAPKLLIYNAKTLAEGVPSRFSGSGSGTDFTLTISSLQPEDFATYYCQHHYGTPRTFGGGTKVEIK

Assays:
[1] = target: T1, HLA-E on the surface of Raji cells (Homo sapiens, UniProt P13747); assay: HLA-E stabilisation assay (flow-cytometry); type: cell-based; settings: HLA-E*0101/0101 Raji cells transfected with peptide, HLA-E surface expression after 16h by flow-cytometry; three independent replicates; Figure 1E; read-out: HLA-E upregulation (EC50)
T1 construct: host or cells: Raji cells
Procedure: For the HLA-E stabilization experiments, HLA-E*0101/0101-encoding Raji cells (German Collection of Microorganisms and Cell Cultures) were maintained in 90% RPMI 1640 + 10% heat-inactivated FCS (Thermo-Fisher). The cells were individually transfected with indicated concentrations of the LMP-1 peptides (Peptides&Elephants) using the Pierce Protein Transfection Reagent according to the manufacturer’s instructions (Thermo-Fisher). After 16h, the cells were either fixed and analyzed for the HLA-E expression by flow-cytometry as described below, or washed once with Opti-MEM I Reduced Serum Medium (Gibco) and subsequently used in NKG2A^+ NK cell inhibition experiments.
The following conjugated mouse anti-human mAB were used for flow-cytometry: PE-CD19 (4G7), BV421-CD56 (NCAM 16.2), BV510-NKG2A (131411), PE-CD71 (M-A712) (all: BD Biosciences), AF647-NKG2C (134591, R&D Systems), APC-HLA/E (3D12) (Biolegend). Dead cells were identified using 7-AAD, LIVE/DEAD Fixable Green or Near-IR Dead Cell Stain Kit (both: Thermo-Scientific). Flow-cytometry analysis was performed on a FACSCanto2 platform and FACSDiva Version 10.7.2 (BD).
Figure 1 LMP-1-derived peptides are associated with the development of EBV^+ lymphomas and inhibit NKG2A^+ NK cells. (A–D) Distribution of LMP-1 variants in patients with (A) asymptomatic reactivations (N=96), (B) symptomatic reactivations (N=96), (C) EBV^+HL (N=25), (D) EBV^+nHL (N=38). Fractions represent the relative frequency of the LMP-1 peptide GGDPHLPTL, GSDPHLPTL, GGDPHLPPL, GGDPPLPTL, GCDPHLPTL, GIDPHLPTL, GAGPHLPTL, GGDTPLPTL, GDDPHLPTL, GGDPHVPTL and GTDPHLPTL variants. ^+ The frequency of the LMP-1 variants was compared to the asymptomatic cohort by the Chi^2 Test. (E, F) HLA-E stabilisation assay. (E) HLA-E stabilisation assay: Raji cells were incubated with indicated concentrations of the positive control (VMAPRTLFL) or the LMP-1 peptide-derived GGDPHLPTL, GSDPHLPTL, GGDPHLPPL, GGDPPLPTL, GCDPHLPTL, GIDPHLPTL, GAGPHLPTL, GGDTPLPTL, GDDPHLPTL, GGDPHVPTL and GTDPHLPTL variants. The HLA-E surface expression was then assessed after 16h of co-culture by flow-cytometry. Plots represent the mean ( ± SD) of three independent replicates. Each peptide was compared to the positive control using RM one-way ANOVA (with the Geisser-Greenhouse correction). (F) NKG2A^+NKG2C^- NK cell inhibition assay: Raji cells were incubated with indicated concentrations of the positive control (VMAPRTLFL) or the LMP-1 peptide-derived GGDPHLPTL, GSDPHLPTL, GGDPHLPPL, GGDPPLPTL, GCDPHLPTL, GIDPHLPTL, GAGPHLPTL, GGDTPLPTL, GDDPHLPTL, GGDPHVPTL and GTDPHLPTL variants and were then co-cultured with pre-activated NKG2A^+NKG2C^- NK cells from 12 blood donors. Plots represent the mean ( ± SD) of 12 independent replicates. Each peptide was compared to the positive control using RM one-way ANOVA (with the Geisser-Greenhouse correction). p < 0.05 was considered significant. *p < 0.05; **p < 0.01; ***p < 0.001. EBV^+HL, EBV^+ Hodgkin lymphoma, EBV^+nHL, EBV^+ non-Hodgkin lymphoma, Pos. Ctrl., positive control. TEXT PRINTED IN THE PICTURE: (E) Pos. Ctrl.: 81.4 μM | (E) GTDPHLPTL: 167.7 μM | (E) GGDPHLPTL: 162 μM | (E) GGDPPLPTL: 153.8 μM | (E) GIDPHLPTL: 313.9 μM | (E) GCDPHLPTL: 304.8 μM | (E) GDDPHLPTL: 370.3 μM | (E) GAGPHLPTL: 317.1μM | (E) GGDPHVPTL: 759 μM | (E) GSDPHLPTL: 613.9 μM | (E) GGDPHLPPL: 682 μM | (E) GGDTPLPTL: 1110 μM | (F) Pos. […] The y-axis titles are 'HLA-E upregulation' (E) and 'NKG2A+NKG2C- NK cell inhibition' (F). / Panels A–D: the percentages and counts (e.g. 44.8%, 43/96) are frequencies of peptide variants in patient cohorts, not results for a substance, and are left out.

[2] = test system: EBV-infected K562-CR2-HLA-E*0103/0103 cells; assay: Cell proliferation assay, K562-CR2-HLA-E*0103/0103; type: cell-based, human; settings: GGDPHLPTL-pulsed (300 µM) K562-CR2-HLA-E*0103/0103 with NKG2A+NKG2C- or NKG2A+NKG2C+ NK cells, Monalizumab 10 µg/mL; Figure 2H
Procedure: (§1) For the cell proliferation assays MHC-I-deficient K562-CR2, K562-CR2-HLA-E*0103/0103 or K562-CR2-HLA-E*0101/0101 target cells were established and maintained as described before ([16]). The cells were then always infected with the marmoset B-lymphoblastoid cell line B95-8 derived EBV-strain, which encodes for the GGDPHLPTL LMP-1 variant, (MOI=1) ([16]) for 3 days. Sorted NKG2C^-NKG2A^+, NKG2C^+NKG2A^- and NKG2C^+NKG2A^+ NK cells were used as effector cells and were quickly thawed at 37°C, washed, and pre-activated overnight in RPMI, 10% FCS, 1% L-glutamine, 10 ng/ml IL-12 and 100 ng/ml IL-18 at 37°C. The NK cells were then harvested by centrifugation at 400xg for 5 minutes and washed once with Opti-MEM. […] All cells were then harvested, fixed with the FIX & PERM Cell Fixation & Cell Permeabilization Kit (Thermo-Scientific) and analysed by flow-cytometry, as described below. […]
(§2) Figure 2 HLA-E variants are associated with the development of EBV^+ lymphomas and inhibit NKG2A^+ NK cells. […] (E) Enriched NKG2A^+NKG2C^- NK cells were co-cultured with EBV-infected K562-CR2, K562-CR2-HLA-E*0103/0103 or K562-CR2-HLA-E*0101/0101 cells and were subsequently analyzed by flow-cytometry. […] Viable EBV-infected K562-CR2-HLA-E*0103/0103 or K562-CR2-HLA-E*0101/0101 cells or enriched NKG2A^+NKG2C^- NK cells was subsequently analysed by flow-cytometry. […]

[3] = test system: EBV-infected K562-CR2-HLA-E*0101/0101 cells; assay: Cell proliferation assay, K562-CR2-HLA-E*0101/0101; type: cell-based, human; settings: GGDPHLPTL-pulsed (300 µM) K562-CR2-HLA-E*0101/0101 with NKG2A+NKG2C- or NKG2A+NKG2C+ NK cells, Monalizumab 10 µg/mL; Figure 2H
Procedure: as §1, §2

Molecule	EC50 [1]	EBV-infected K562-CR2 cell dissemination on blocking of NKG2A [2]	EBV-infected K562-CR2 cell dissemination on blocking of NKG2A [3]
GGDPHLPTL [GGDPHLPTL]	162 µM		
GGDPPLPTL [GGDPPLPTL]	154 µM		
GGDPHLPPL [GGDPHLPPL]	682 µM		
GSDPHLPTL [GSDPHLPTL]	614 µM		
GDDPHLPTL [GDDPHLPTL]	370 µM		
GTDPHLPTL [GTDPHLPTL]	168 µM		
GGDPHVPTL [GGDPHVPTL]	759 µM		
GIDPHLPTL [GIDPHLPTL]	314 µM		
GGDTPLPTL [GGDTPLPTL]	1110 µM		
GAGPHLPTL [GAGPHLPTL]	317 µM		
GCDPHLPTL [GCDPHLPTL]	305 µM		
B1		reduction	reduction
